Data: patent publication US7799969B2, “Methods for cloning rats by nuclear transfer” (Institut National de la Recherche Agronomique, priority 2003, dated 2010)
Where a SMILES comes first, the peptide text is derived from it. The star is where a group is joined. Cbz = O=C(OCc1ccccc1)*

How the values were obtained:
[1] = system: rat embryos reconstructed from ovocytes; assay: Rate of foetal development of rat embryos reconstructed from ovocytes previously exposed to a proteasome inhibitor; format: in vivo
From the text: By the method according to the invention, the ovocytes are transferred to a medium not containing inhibitor(s) right before conducting the reconstruction of the embryos. This makes it possible to avoid direct exposure of the nucleus donor cells to their action. Reconstruction of the embryos must then be carried out very rapidly before proteasome becomes functional again in order to avoid a premature activation of the ovocyte. The purpose of this rapid reconstruction is to […] the period during which the condensed chromatin of the nucleus is directly exposed to the ovocyte factors which make possible the reprogramming of the activity of the foreign nucleus. It then becomes possible to reconstitute a greater number of embryos during a given time period, and therefore to increase the number of transplanted embryos per recipient female for in vivo development. This possibility makes it possible to get around the low rate of implantation observed in the rat after transfer of a nucleus (table 4).
These foetuses may give rise to viable baby rats (table 4).
Set up the retention and enucleation-injection pipettes on their respective pipette holders. • 5. Position the pipettes so that their ends are horizontal, i.e., parallel to the coverglass of the micromanipulation chamber, and facing each other. • 6. Transfer the ovocytes and the cells to the micro-injection chamber by means of a pipette for manipulation of the ovocytes. • 7. Maintain an ovocyte on the maintenance pipette in order that the deformation of the plasma membrane under which the ovocyte metaphase is situated, is situated between 2 and 3 hr or between 3 and 4 hr. • 8. Apply the enucleation-injection pipette to the pellucid area at 3 hr. Verify that the pipette is in exactly the same plane as the pellucid area. Gently aspirate the pellucid area and activate the piezo system (setting 1) to puncture it. When the system is perfectly adjusted the pellucid area is punctured in a few seconds according to a perfect punch. • 9. Next, aspirate a cell whose morphology corresponds to the sought-for criteria into the enucleation-injection pipette and break its plasma membrane by several to-and-fro's in the pipette or by means of the piezo-Drill (a few impulsions are sufficient at setting 2). Maintain the cell close to the end of the micropipette. • 10. Penetrate into the perivitelline space of the ovocyte through the previously punctured orifice, apply the pipette against the plasma membrane and push the donor cell back to the end of the pipette and then push the pipette in up to the opposite end of the ovocyte without, however, reaching the plasma membrane opposite. • 11. Break the plasma membrane by means of one or more impulsions (1 to 3) of the Piezo-Drill (setting 2). • 12. Inject the cell into the cytoplasm of the ovocyte with the minimum possible medium. • 13. Gently withdraw the enucleation-injection pipette and re-close the ovocyte by aspirating the 2 ends of the broken plasma membrane and the ovocyte metaphase (enucleation). • 14. Transfer the reconstructed embryos into a micro-drop (50 μl) of RECMB2. • 15. Ovocyte activation is triggered or prolonged by transfer of the ovocytes to a micro-drop (20 μl) of RECMB2-BLI for a duration of activation generally between 1 and 2 hr. • 16. The ovocytes are then rinsed in 4-5 drops (50 μl) of RECMB2 to be cultured in the same medium while waiting to be transferred into a pseudogestating female or to prolong in vitro culture.

[2] = system: rat ovocytes; assay: Reversibility of the inhibition of spontaneous activation of rat ovocytes (parthenogenetic development after removal of MG132 and activation by butyrolactone); format: cell-based; details: repeats n = 5
[3] = system: rat ovocytes; assay: Inhibition of spontaneous activation of rat ovocytes by exposure to a proteasome inhibitor; format: cell-based; details: repeats n = 2
From the text: The method according to the invention presents the advantage of strictly and reversibly controlling the ovocyte activation process by acting upstream of the biochemical processes that control activation and by preventing the degradation of the macromolecular compounds responsible for arrest of the ovocyte in metaphase and in particular of the cyclins. In order to do this, the ovocyte is exposed in vitro to one or more inhibitor(s) of proteasome, a key organelle of the cell: inhibition of its proteolytic action on the cyclins makes it possible to maintain an elevated level of MPF kinasic activity which determines metaphase arrest. The majority of ovocytes may thus be maintained in metaphase of the second meiotic division for several hours after their harvest (table 1).
Solutions: • Medium M2 (Hogan & al, 1994 In: Manipulating the Mouse Embryo) • Medium RECMB2*-MG132 (MG132=1.25 μM) • Medium M2-Hyaluronidase-MG132 (MG132=1.25 μM; Hyaluronidase=2.5 mg/ml) • Medium M2-MG132 (MG132=5.00 μM) • *RECMB2=medium mRlECM-BSA (Oh & al. (1998) Biol. Reprod.), with BSA=4 mg/ml and NaCl=100-130 mM.
10. The “decoronised” ovocytes are transferred to a drop of culture medium RECMB2-MG132.

[4] = reconstructed embryos transferred to recipient females

CC(C)C[C@@H](C=O)NC(=O)[C@H](CC(C)C)NC(=O)[C@H](CC(C)C)NC(=O)OCc1ccccc1 [MG132, peptide aldehyde Cbz-LLL-H] (Cbz-Leu-Leu-Leu-aldehyde)
No. of foetuses (%) total ([1]; % in brackets): 55.9% | No. of foetuses (%) viable ([1]; % in brackets): 47.0% | pregnant recipients between D12-22 ([1]; number of recipient females): 11 | living at D12-D14 ([1]; of the viable foetuses): 11 | living rats at term ([1]; of the viable foetuses): 5 | No. of foetuses total ([1]; rat, in vivo): 19 | No. of foetuses viable ([1]; rat, in vivo): 16 | implantation (%) [1, 4]: 5.4% | implantation (number) [1, 4]: 34 | % of embryos (parthenogenetic development at the morula stage) ([2]; t = 0 removal of MG132, exposure to MG132 for 120 min, activation by butyrolactone): 0% (0/71) | % of embryos (parthenogenetic development at the morula stage) ([2]; t = 120 min, after removal of MG132 and induction of activation by butyrolactone): 45.9% (34/74) | % of activated ovocytes after collection ([3]; t = 0): 0% (0/68) | % of activated ovocytes after collection ([3]; t = 210 m after collection): 33.8% (23/68)
